Data taken from patent US11510931B2, “Compositions and methods for treating ophthalmic conditions” (MEDICON PHARMACEUTICALS, INC., priority 2016, dated 2022).
pIC50: −log10 of the molar value.

How the values were obtained:
MMP-1 (collagenase I) = molecular target: T1, MMP-1 (collagenase I) (Homo sapiens, UniProt P03956); assay: In vitro collagenase activity assay with purified MMP-1; format: biochemical; details: purified MMP-1 (collagenase I)
T1 sequence (P03956 100-469): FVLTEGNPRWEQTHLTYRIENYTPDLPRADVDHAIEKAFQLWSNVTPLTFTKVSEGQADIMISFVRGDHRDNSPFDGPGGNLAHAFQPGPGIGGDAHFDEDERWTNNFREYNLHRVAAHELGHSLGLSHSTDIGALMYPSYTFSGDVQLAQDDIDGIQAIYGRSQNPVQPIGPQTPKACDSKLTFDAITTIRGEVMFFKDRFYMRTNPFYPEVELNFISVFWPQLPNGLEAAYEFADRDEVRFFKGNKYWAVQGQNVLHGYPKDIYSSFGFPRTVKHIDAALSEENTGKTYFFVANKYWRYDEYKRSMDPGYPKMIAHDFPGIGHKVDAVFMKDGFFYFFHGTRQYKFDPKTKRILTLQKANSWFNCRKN
Description: In an in vitro assay with purified MMP-1 (collagenase I) as […] it was shown that PS inhibited collagenase activity with an IC50 of <100 nM. In cultured human conjunctiva cells, PS suppressed MMP-1 by 75%-86%. In the lacrimal glands of rabbits with DED treated with PS eye drops, PS suppressed MMP-9 levels by 27% compared to vehicle treated rabbits (2.20±0.24 vs. 1.66±0.20 ng/mg protein; p<0.05; mean±SEM).

MMPs = assay: General MMP activity in rabbit cornea (FRET peptide); format: in vivo
Description: The general activity of MMPs was determined in the corneas of three groups of rabbits. This MMP activity assay employs a fluorescence resonance energy transfer (FRET) peptide as a generic MMP indicator. Rabbits were treated with PS 1.6% or ketorolac 0.5% eye drops topically applied to their eyes or were not treated (naïve group). Results in relative fluorescence units (RFU)/mg protein (mean±SEM). Naïve=1,328±123; PS=749±218; Ketoroloac=1,272±106 (p<0.03 vs PS).
In an acute experiment, naïve rabbits were treated with either PS or ketorolac (both administered topically) for 1 h and determined the activity of MMP in the cornea. This assay determines the activity of MMPs collectively in a given tissue.

IL-1β = IL-1β levels in the ILG of rabbits with DED (ELISA); format: in vivo, rabbit
Description: Using this model, we compared the effect of PS to that of cyclosporine and lifitegrast. Rabbits were treated for 6 days with PS as above or cyclosporine 0.05% or lifitegrast 5% eye drops 3×/day. In addition to determining TUBT, osmolarity and STT, we measured the levels of IL-8 and IL-1β in the ILGs of the rabbits harvested at euthanasia. Both of these cytokines are significant mediators of inflammation in DED. As shown in the table below, PS had statistically significant effects on TBUT, tear osmolarity, IL-8 and IL-1β levels. […] Of note, lifitegrast suppressed STT below the levels of the vehicle group and this suppression was statistically significant, but in the opposite direction for a useful therapeutic effect.
Moreover, for all three cytokines PS suppressed their unstimulated levels as well (62%, 84% and 4.7% reduction, respectively). In addition, PS suppressed the levels of IL-8 by 64% and IL-1β (not expressed by the cultured cells) by 61% in the ILG of rabbits treated with PS for 1 week compared to controls treated with vehicle (FIG. 8B). TGF-β was not detectable by the method in ILG homogenates. All these changes were statistically significant (p<0.001-0.04, except for the unstimulated TGF-β).

[1] = system: chorioallantoic membrane (CAM); assay: Chorioallantoic membrane (CAM) neovascularization assay; format: in vivo, chicken; details: day 4; for # of new vessels: Mean ± SEM
Description: Second, the effect of PS on new vessel formation (neovascularization) was evaluated using the chorioallantoic membrane (CAM) assay. In this assay, fertilized white chicken eggs (SPF Premium, Charles River Laboratory, North Franklin, Conn.) were incubated at 37° C. in 70% humidity for 3 days. The embryos were then incubated ex vivo in a sterile Petri dish for 7 days. Gelatin sponges adsorbed with or without VEGF plus PS or water (vehicle control) were implanted on the CAM surface and the neovasculature was counted on day 4 post implantation under a dissecting microscope.

Compound: CCOP(=O)(OCC)OCCCCOC(=O)CC1=C(C)/C(=C/c2ccc([S+](C)[O-])cc2)c2ccc(F)cc21 (centres unmarked) [PS, phosphosulindac]
- pIC50 (MMP-1 (collagenase I)): > 7.00
- suppression of the activity of MMPs in the cornea (MMPs; naïve rabbits, topical, 1 h): 43%
- general activity of MMPs in the corneas (MMPs; rabbits, PS 1.6% or ketorolac 0.5% eye drops, mean±SEM): 749±218 RFU/mg protein
- IL-1β in the ILG (IL-1β; Con A DED rabbits, 6 days, eye drops 3×/day, PS nanoparticles, cyclosporine 0.05%, lifitegrast 5%, mean ± SEM): 8.4 ± 1.2 pg/mg protein
- suppression of IL-1β levels in the ILG (IL-1β; rabbits treated with PS for 1 week vs vehicle): 61%
- inhibition at 16 µM ([1]; Gallus gallus, 96 h, VEGF + PS 16 μM): 26%
- inhibition at 50 µM ([1]; Gallus gallus, 96 h, VEGF + PS 50 μM): 34%
- neovascularization % inhibition ([1]; PS 50 μM without VEGF): 29 (P < 0.016) %
- # of new vessels ([1]; PS 50 μM without VEGF): 41 ± 3.2
- # of new vessels ([1]; VEGF + PS 16 μM): 46.4 ± 1.5
- # of new vessels ([1]; VEGF + PS 50 μM): 41.4 ± 1.0
